The values that follow come from publication PMC10666288, “Unveiling the Catalytic Mechanism of a Processive Metalloaminopeptidase” (Biochemistry, 2023).

Test [1] concerns the target T1, PaPepA (Pseudomonas aeruginosa, UniProt Q02RY8). Briefly: Isothermal titration calorimetry of metal binding. On the set-up: GG stays after cleavage) (N); made in house; host or cells: E. coli BL21(DE3). The method, then:
Purified PaPepA (100 μM) was buffer exchanged into ITC buffer (50 mM Tris, 140 mM NaCl, pH 7.4) using a Millipore Amicon Ultra-4 centrifugal unit (10 kDa MWCO). The protein was syringe-filtered through a […] and diluted to 50 μM. 3 mL solutions of filtered metal were also prepared. A 400 μM solution of MnCl2 and a 1 mM solution of MgCl2 were prepared by dilution of 1 M metal chloride stocks (Sigma) into ITC buffer.
Buffer, protein, and metal solutions were degassed. Following extensive washes with ITC buffer, the protein was loaded into the cell (volume 1.43 mL) of a VP-ITC (MicroCal) and MnCl2 or MgCl2 solution was loaded into the syringe (total volume 300 μL). Experiments were carried out using the following settings: temperature = 25 °C, duration = 4 s, spacing = 210 s, filter period = 2 s, for 35 injections (one injection of 2 μL followed by 34 injections of 8 μL). Data were analyzed using Origin(Pro), Version 2021 (OriginLab Corporation, Northampton, Massachusetts, USA), and MicroCal PEAQ-ITC analysis software (Malvern).
On the technique in general: ITC needs no label: the signal is the heat of the interaction.

Test [2] deals with T1, PaPepA. As to the kind of experiment: Metal activation of Leu-pNA cleavage (metal varied, Leu-pNA fixed). The conditions noted are these: with 2 mM Leu-pNA. It is filed as biochemical. On the set-up: GG stays after cleavage) (N); made in house; host or cells: E. coli BL21(DE3). The method, then: A BMG Labtech POLARstar Omega plate reader was used for activity assays and kinetic studies involving amino acids conjugated to para-nitroaniline (pNA) (Sigma) or peptides as substrates. Assays were carried out at 25 °C in clear half-area 96-well plates (Greiner Bio-One). […] For kinetic assays investigating Leu-AMC as a substrate, a SpectraMax M2E was used. Reactions were carried out using black half-area 96-well plates with clear bottoms (Greiner Bio-One). Product formation was assessed by monitoring changes in fluorescence, with the excitation wavelength set at 341 nm and emission at 441 nm. The cutoff was 420 nm. PMT gain was set to medium, with six flashes per read. […] Calibration curves of pNA concentration vs absorbance and AMC vs fluorescence were constructed, and initial rate values were divided by the slope of these calibration curves to reveal the rate of product formation over time (Table S2).
For all assays excluding pH dependence curves, buffer conditions were as follows: 100 mM HEPES, 50 mM KCl, and pH 8.0. For assays carried out under pseudo-first-order conditions, one reaction component was fixed and in excess, while the other was varied. […] For assays involving variation of aa-pNA or aa-AMC, MnCl2 was added to a final concentration of 3 mM.

The target in test [3] is T1, PaPepA. As to the kind of experiment: Solvent kinetic isotope effects. It is filed as biochemical. More on the design: GG stays after cleavage) (N); made in house; host or cells: E. coli BL21(DE3). The note with it: H2O vs 80% D2O, metal varied, Leu-pNA fixed, pH 8.0. As to the method: SKIEs were determined by plotting saturation curves in H2O or 80% D2O. […] Differences between reaction rates under initial velocity conditions were measured varying the concentration of either Leu-pNA or Mn^2+, while keeping the other component constant and in excess (at least 5× the value of KM or KACT, Scheme 2). Experiments were performed at pH 8.0 (100 mM HEPES, with 50 mM KCl). For proton inventory studies, D2O was varied from 0 to 80% in 10% increments. All proton inventory studies were carried out on the same day by using the same enzyme stock.
When calculating SKIEs, kcat and KM were obtained from the Michaelis–Menten curves in H2O. The 80% D2O Michaelis–Menten curve was fit to the following equation: [drawing 2] 2 where Fi is the fraction D2O, and EV/K and EV are the isotope effects −1 on kcat/KM and kcat, respectively.

Test [4] has as its target T1, PaPepA. Briefly: Zn2+ inhibition in the pNA assay with Mn2+. On the set-up: GG stays after cleavage) (N); made in house; host or cells: E. coli BL21(DE3). It is filed as biochemical. The method, then:
Figure 3 PaPepA metal binding and catalysis. (A) PaPepA activity with different divalent metals assessed through kcat/KACT. Leu-pNA was present in all assays at a concentration of 2 mM. (B) The effects of Zn^2+ and Mn^2+ preincubation, followed by extensive dialysis in metal-free buffer and subsequent addition of excess Mn^2+. (C) Michaelis–Menten plots showing inhibition of PaPepA by Zn^2+. Data were fit to a noncompetitive mixed model of inhibition. (D) Representative plots of the ITC data for titrations of MnCl2 (left) and MgCl2 (right) with PaPepA. The top panel depicts raw data, and the bottom panel depicts the resulting enthalpy changes as a function of molar addition of metal as well as the best fit to a single binding site model. (E) Plot of room-temperature EPR double integrals against Mn^2+ concentration for samples without enzyme (teal dots) and in the presence of 20 μM PaPepA (purple dots). […] (F) Frozen solution EPR spectra of PaPepA in the presence of various ratios of Mn^2+: enzyme, upper box zoomed-in data without the metal in buffer control. For panels (A), (B), and (C), data are mean ± SEM across three replicates. For Figure 3D, experiments were performed in two separate biological replicates, one shown here for illustration, and all data were acquired in Figure S11. […]

Test [5] concerns the target T1, PaPepA. The conditions noted are these: degassed solutions, 3 mM MnCl2, 2 mM Leu-pNA, sodium bicarbonate 0 to 5 mM.
Description: For assays investigating bicarbonate dependence, all buffers and stock solutions were extensively degassed prior to use.[25]
The target of test [6] is T1, PaPepA. As to the kind of experiment: biochemical.
Description: MnCl2 was present in excess.
concentrations of Leucine as an inhibitor.
Test [7] deals with T1, PaPepA. As to the kind of experiment: Alcohol dehydrogenase peptide degradation assay (LC-MS). It is filed as biochemical. On the set-up: GG stays after cleavage) (N); made in house; host or cells: E. coli BL21(DE3). The conditions noted are these: MassPREP ADH digest, 100 nM PaPepA, 3 mM MnCl2, overnight. The method, then:
A vial of MassPREP ADH digestion standard (Waters) was reconstituted in 200 μL of LC-MS grade water. Reaction mixtures were prepared by combining 25 μL of ADH solution, 3 mM MnCl2, and 100 nM PaPepA (final concentrations) in a total volume of 50 μL buffer (100 mM HEPES pH 8.0, 50 mM KCl). For control reactions, the addition of PaPepA was omitted. Samples and controls were each prepared in triplicate and incubated overnight, and reactions quenched with the addition of […] of 10% TCA. Following the addition of acid, PaPepA was added to control samples to a final concentration of 50 nM (equivalent to a concentration of enzyme in the reaction samples following acid quenching). Samples were concentrated to 20 μL. A 1 μL portion of this was diluted in 100 μL of LC-MS grade water. 10 μL was injected and analyzed on a SCIEX TripleTOF 5600+ mass spectrometer with an Eksigent 425 nanoLC configured in trap elute configuration. Each sample was loaded onto the trap (Waters ACQUITY M-Class symmetry column 180 μm × 20 mm) and washed with 0.05% TFA in water for 5 min at 5 μL/min. The trap was then switched in line with the Waters M-Class HSS1 analytical column, 75 μm × 150 mm, with a flow rate of 300 nL/min. Samples were eluted over 30 min using a linear gradient from 98% A (100% water 0.1% FA) 2% B (80% MeCN, […] 0.1% FA) to 60% A, 40% B linearly over 12 min, rising to 5% A, 95% B, before returning to 98% A to re-equilibrate. Eluate from the column was sprayed directly into the nanospray source of the mass spectrometer. MS data were collected from 400 to 1250 m/z as the survey scan, and under data-dependent acquisition (DDA) setting, the top 20 strongest peptides were selected for MS/MS using CID fragmentation. Peptide mass tolerance was 20 ppm on the MS and 0.1 Da on the MS/MS.
Identification and analysis of ADH peptides were performed using the Skyline open-access software package (version 22.2). Raw data were extracted using msConvert (ProteoWizard) and the data searched using Skyline against the ADH1 sequence from Saccharomyces cerevisiae (UniProt: P00330). The digestion enzyme was set as trypsin, allowing up to three missed cleavages. Searches encompassed peptides between 400 and 1250 m/z with a mass tolerance of 0.3 m/z. Carbamidomethyl was set as a fixed modification for cysteine residues. Data were searched for the protonated 1+, 2+, and 3+ charge states of each peptide.
Peaks were integrated, and areas were used to qualitatively assess differences in peptide abundances across PaPepA-digested samples and controls. Peptides present in control samples but absent in reactions (integrated area <1000) were classified as “digested”.

“And” between values parts separate entries of the source, which are not always exact repeats. Identical values can stand only once.

T1 sequence (Q02RY8 whole entry): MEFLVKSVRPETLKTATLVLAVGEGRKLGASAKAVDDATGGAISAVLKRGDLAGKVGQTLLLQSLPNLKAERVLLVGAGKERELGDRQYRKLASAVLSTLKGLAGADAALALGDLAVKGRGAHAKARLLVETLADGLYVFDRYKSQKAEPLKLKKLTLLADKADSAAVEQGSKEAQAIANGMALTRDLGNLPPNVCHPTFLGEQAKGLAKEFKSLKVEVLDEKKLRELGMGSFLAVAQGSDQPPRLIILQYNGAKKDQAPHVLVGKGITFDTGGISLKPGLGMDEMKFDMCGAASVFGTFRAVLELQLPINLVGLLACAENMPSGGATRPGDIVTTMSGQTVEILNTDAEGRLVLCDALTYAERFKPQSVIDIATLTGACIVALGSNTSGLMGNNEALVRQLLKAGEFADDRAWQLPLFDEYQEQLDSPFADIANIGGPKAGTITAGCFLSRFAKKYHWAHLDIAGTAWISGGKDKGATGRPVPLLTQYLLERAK

A word on the Kd: it is the concentration at which binding is half-saturated. High values mean lower affinity, low ones higher affinity. Take `[Mg+2]` [Mg^2+]: in test [1] (ITC stoichiometry per monomer), the “number of metal atoms binding the protein” value is listed as 0.68. Besides, the Kd in test [1] (ITC, first line per metal: N 1, [PepA] 35.80 ± 1.5 (Mn) or 32.60 (Mg) µM, [Metal] 400.0 or 1000 µM) was determined as 1.84 ± 0.182 µM; in test [1] (ITC, one binding site per monomer), 2.1 ± 0.3 µM; in test [1] (ITC, one binding site per monomer, 25 °C, pH 7.4), 2.14 ± 0.326 µM; in test [1] (ITC, second line per metal: N 1, [PepA] 47.00 or 48.00 µM, [Metal] 526.5 ± 22.5 (Mn) or 1470 (Mg) µM) it was 2.72 ± 0.47 µM; in test [1] (ITC, third line per metal: N fitted, [PepA] 47.00 or 48.00 µM, [Metal] 400.0 or 1000 µM) it was 1.84 ± 0.182 µM. The N in test [1] (ITC, third line per metal: N fitted) is listed as 0.679 ± 0.001. For the same molecule, the KACT was 3 mM and 3.0 ± 0.7 mM in test [2] (pH 8.0); approximately 3 mM in test [2] (pH 8.0, listed as MgCl2). Moreover, the kcat in test [2] (pH 8.0) is reported as 0.051 ± 0.002 s^–1. Also, the kcat/KACT in test [2] (pH 8.0) is 0.017 ± 0.004 s^–1mM^–1. Also, the “^D2Okcat” value in test [3] turned out to be 3.1 ± 0.1. The “^D2Okcat/KACT” value in test [3] was found to be 2.3 ± 0.1.
By Ki is commonly meant the equilibrium dissociation constant of an inhibitor or competing ligand from its target. A high value points to lower affinity. As to `[Zn+2]` [Zn^2+], in test [2] (pH 8.0), the KACT amounted to 0.02 ± 0.01 mM; the kcat is 0.009 s^–1 and 0.009 ± 0.001 s^–1; the kcat/KACT is recorded as 0.5 ± 0.2 s^–1mM^–1. The molecule further displayed a KACT in test [2] (pH 8.0, as given in text) of 0.02 mM. Further, the Ki in test [4] (Zn^2+ and Mn^2+ both added without preincubation, noncompetitive mixed model) turned out to be 12.2 µM. Moreover, the α in test [4] (noncompetitive model of inhibition) is recorded as 5.6.
Take `O=C([O-])O.[Na+]` [bicarbonate, sodium bicarbonate]: the “activation by bicarbonate (in words)” value in test [5] is “not observed activation or increase in activity”.
Regarding `CC(C)C[C@H](N)C(=O)O` [leucine], the Ki in test [6] stood at 601 µM.
Take “YSGVC[+57.0]HTDLHAWHGDWPLPVK: tryptic peptide of yeast ADH, carbamidomethyl cysteine”: in test [7], the “Cleaved?” value is “Digested (Peptides present in control samples but absent in reactions (integrated area <1000) were classified as “digested”)”.
